The experiment concerns MDA-MB-468 spheroids with HUVEC/MSC, viability. The experiment can be described thus: Anticancer human tumor MDA-MB-468 cell line growth inhibition [PI3K].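 For all read-outs here: spheroids exposed to agents for seven days before readout.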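 For viability, T/C: 100% = DMSO vehicle control viability.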 The conditions noted are these: for viability, T/C: stronger effect = lower value. In outline:
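Tumor cells grown as multi-cell spheroids with HUVEC endothelial cells and MSC fibroblast-like stroma were treated with targeted agents combined with inavolisib, alpelisib, duvelisib or copanlisib. Doses fell in half-log steps from near clinical Cmax, else from 10 microM. Viability was measured.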

The mark [1] stands for this setting: curve of first compound, second compound 0.00316 µM.
[2] abbreviates: curve of first compound, second compound 0.01 µM.
The mark [3] stands for this setting: curve of first compound, second compound 0.0316 µM.
Setting [4] is: curve of first compound, second compound 0.1 µM.
Setting [5] is: curve of first compound, second compound 0.316 µM.
The mark [6] stands for this setting: curve of first compound, second compound 1 µM.
Where [7] appears, read: second compound 0.00316 µM, first compound 0.0316 µM.
Where [8] appears, read: second compound 0.00316 µM, first compound 0.1 µM.
[9] abbreviates: second compound 0.00316 µM, first compound 0.316 µM.
Where [10] appears, read: second compound 0.00316 µM, first compound 1 µM.
Where [11] appears, read: second compound 0.00316 µM, first compound 3.16 µM.
Setting [12] is: second compound 0.00316 µM, first compound 10 µM.
[13] abbreviates: second compound 0.01 µM, first compound 0.0316 µM.
Where [14] appears, read: second compound 0.01 µM, first compound 0.1 µM.
The mark [15] stands for this setting: second compound 0.01 µM, first compound 0.316 µM.
The mark [16] stands for this setting: second compound 0.01 µM, first compound 1 µM.
[17] abbreviates: second compound 0.01 µM, first compound 3.16 µM.
The mark [18] stands for this setting: second compound 0.01 µM, first compound 10 µM.
[19] abbreviates: second compound 0.0316 µM, first compound 0.0316 µM.
Setting [20] is: second compound 0.0316 µM, first compound 0.1 µM.
[21] abbreviates: second compound 0.0316 µM, first compound 0.316 µM.
Setting [22] is: second compound 0.0316 µM, first compound 1 µM.
Setting [23] is: second compound 0.0316 µM, first compound 3.16 µM.
Setting [24] is: second compound 0.0316 µM, first compound 10 µM.
[25] abbreviates: second compound 0.1 µM, first compound 0.0316 µM.
Where [26] appears, read: second compound 0.1 µM, first compound 0.1 µM.
The mark [27] stands for this setting: second compound 0.1 µM, first compound 0.316 µM.
[28] abbreviates: second compound 0.1 µM, first compound 1 µM.
[29] abbreviates: second compound 0.1 µM, first compound 3.16 µM.
Setting [30] is: second compound 0.1 µM, first compound 10 µM.
Setting [31] is: second compound 0.316 µM, first compound 0.0316 µM.
Where [32] appears, read: second compound 0.316 µM, first compound 0.1 µM.
[33] abbreviates: second compound 0.316 µM, first compound 0.316 µM.
[34] abbreviates: second compound 0.316 µM, first compound 1 µM.
The mark [35] stands for this setting: second compound 0.316 µM, first compound 3.16 µM.
Where [36] appears, read: second compound 0.316 µM, first compound 10 µM.
Where [37] appears, read: second compound 1 µM, first compound 0.0316 µM.
Where [38] appears, read: second compound 1 µM, first compound 0.1 µM.
The mark [39] stands for this setting: second compound 1 µM, first compound 0.316 µM.
The mark [40] stands for this setting: second compound 1 µM, first compound 1 µM.
The mark [41] stands for this setting: second compound 1 µM, first compound 3.16 µM.
The mark [42] stands for this setting: second compound 1 µM, first compound 10 µM.

Consider `CC1(C)CCC(Nc2ncc(C(F)(F)F)c(-c3c[nH]c4c(P(C)(C)=O)c(C#N)ccc34)n2)CN1` (centres undefined) + CC(Nc1ccc2c(c1)OCCn1cc(N3C(=O)OCC3C(F)F)nc1-2)C(N)=O, for which the IC50 (in general, the concentration at which inhibition is half-maximal) is, setting by setting: under setting [1], less than 31.6 nM; under setting [2], less than 31.6 nM; under setting [3], less than 31.6 nM; under setting [4], less than 31.6 nM; under setting [5], less than 31.6 nM; under setting [6], less than 31.6 nM. Moreover, the viability, T/C (commonly the result in the treated group divided by that in the control group, in per cent) under setting [7] was 9.78%; the viability, T/C under setting [8] was 9.47%; the viability, T/C under setting [9] is 9.65%; the viability, T/C under setting [10] was 8.55%; the viability, T/C under setting [11] is 8.68%; the viability, T/C under setting [12] was 1.56%. Besides, the viability, T/C was 10.6% under setting [13]; 11.4% under setting [14]; 9.42% under setting [15]; 8.7% under setting [16]; 7.16% under setting [17]; 2.11% under setting [18]. Moreover, the viability, T/C under setting [19] is 11.1%; the viability, T/C under setting [20] is 9.59%; the viability, T/C under setting [21] was 7.86%; the viability, T/C under setting [22] is 8.01%; the viability, T/C under setting [23] is 7.19%; the viability, T/C under setting [24] is 1.24%. The viability, T/C is 11.6% under setting [25]; 10% under setting [26]; 9.28% under setting [27]; 8.9% under setting [28]; 7.73% under setting [29]; 1.12% under setting [30]. Further, the viability, T/C is, setting by setting: under setting [31], 11.5%; under setting [32], 9.36%; under setting [33], 8.28%; under setting [34], 8.77%; under setting [35], 6.8%; under setting [36], 1.12%. Further, the viability, T/C under setting [37] was 11.7%; the viability, T/C under setting [38] was 9%; the viability, T/C under setting [39] was 8.85%; the viability, T/C under setting [40] is 10.9%; the viability, T/C under setting [41] was 5.99%; the viability, T/C under setting [42] is 1.09%.
As for `Cn1nccc1Nc1nccc(-c2ccn(C(CO)c3ccc(Cl)c(F)c3)c(=O)c2)n1` (centres undefined) + Cc1nc(NC(=O)N2CCCC2C(N)=O)sc1-c1ccnc(C(C)(C)C(F)(F)F)c1, the IC50 was greater than 10000 nM under setting [3]; greater than 10000 nM under setting [4]; greater than 10000 nM under setting [5]; greater than 10000 nM under setting [6]; 1600 nM (curve of first compound, second compound 3.16 µM); less than 31.6 nM (curve of first compound, second compound 10 µM). The viability, T/C under setting [19] was 88.7%; the viability, T/C under setting [20] was 85.4%; the viability, T/C under setting [21] was 84%; the viability, T/C under setting [22] is 116%; the viability, T/C under setting [23] was 107%; the viability, T/C under setting [24] was 63.3%. The viability, T/C under setting [25] was 92.2%; the viability, T/C under setting [26] was 94.9%; the viability, T/C under setting [27] was 81.7%; the viability, T/C under setting [28] is 93.3%; the viability, T/C under setting [29] is 113%; the viability, T/C under setting [30] is 53.8%. For the same compound, the viability, T/C under setting [31] was 103%; the viability, T/C under setting [32] was 112%; the viability, T/C under setting [33] is 95.9%; the viability, T/C under setting [34] is 109%; the viability, T/C under setting [35] is 61.1%; the viability, T/C under setting [36] was 63.8%. The viability, T/C is 81.3% under setting [37]; 75.6% under setting [38]; 80.4% under setting [39]; 67.3% under setting [40]; 62.9% under setting [41]; 53.9% under setting [42]. Besides, the viability, T/C by setting is: (second compound 3.16 µM, first compound 0.0316 µM) 82.3%; (second compound 3.16 µM, first compound 0.1 µM) 64.1%; (second compound 3.16 µM, first compound 0.316 µM) 63.4%; (second compound 3.16 µM, first compound 1 µM) 59.7%; (second compound 3.16 µM, first compound 3.16 µM) 42.3%; (second compound 3.16 µM, first compound 10 µM) 32.3%. Moreover, the viability, T/C reads like this: (second compound 10 µM, first compound 0.0316 µM) 39.6%; (second compound 10 µM, first compound 0.1 µM) 24.8%; (second compound 10 µM, first compound 0.316 µM) 29.6%; (second compound 10 µM, first compound 1 µM) 20.2%; (second compound 10 µM, first compound 3.16 µM) 17.6%; (second compound 10 µM, first compound 10 µM) 14.5%.
On to `C[C@@H](NC(=O)c1ncnc(N)c1Cl)c1ncc(C(=O)Nc2cc(C(F)(F)F)c(Cl)cn2)s1`, for which the viability, T/C is 95.6% [middle of 4 runs] (compound 0.0316 µM), 102% [middle of 4 runs] (compound 0.1 µM) and 99.1% [middle of 4 runs] (compound 1 µM). Also, the half-inhibitory concentration (IC50) (curve of compound) is greater than 10000 nM.
In the case of `CC(=O)c1c(C)c2cnc(Nc3ccc(N4CCNCC4)cn3)nc2n(C2CCCC2)c1=O`, the viability, T/C by setting is: (compound 0.000316 µM) 106% [middle of 4 runs]; (compound 0.001 µM) 93.5% [middle of 4 runs]; (compound 0.00316 µM) 110% [middle of 4 runs]; (compound 0.01 µM) 91% [middle of 4 runs]; (compound 0.0316 µM) 99.3% [middle of 4 runs]; (compound 0.1 µM) 97.2% [middle of 4 runs]. Further, for the setting “curve of compound”, the 50% inhibitory concentration (IC50) was greater than 100 nM.
As for `COc1c(OCCCN2CCOCC2)ccc2c3n(c(=NC(=O)c4cnc(N)nc4)nc12)CCN3`, the viability, T/C was 99.8% [middle of 8 runs] (compound 0.00316 µM); 90.4% [middle of 8 runs] (compound 0.01 µM); 76.7% [middle of 8 runs] (compound 0.0316 µM); 57.7% [middle of 8 runs] (compound 0.1 µM); 23.9% [middle of 8 runs] (compound 0.316 µM); 3.27% [middle of 8 runs] (compound 1 µM). For the same compound, the IC50 (compound alone, run of 05/09/2023) is 122 nM [middle of 7 runs].
As to `CC1(C)CCC(Nc2ncc(C(F)(F)F)c(-c3c[nH]c4c(P(C)(C)=O)c(C#N)ccc34)n2)CN1` (centres undefined) + COc1c(OCCCN2CCOCC2)ccc2c3n(c(=NC(=O)c4cnc(N)nc4)nc12)CCN3, the half-maximal inhibitory concentration (IC50) by setting is: under setting [1], less than 31.6 nM; under setting [2], less than 31.6 nM; under setting [3], less than 31.6 nM; under setting [4], less than 31.6 nM; under setting [5], less than 31.6 nM; under setting [6], less than 31.6 nM. Further, the viability, T/C runs as follows: under setting [7], 9.69%; under setting [8], 8.09%; under setting [9], 7.16%; under setting [10], 7.44%; under setting [11], 6.56%; under setting [12], 1.22%. Moreover, the viability, T/C runs as follows: under setting [13], 8.56%; under setting [14], 7.53%; under setting [15], 6.69%; under setting [16], 6.66%; under setting [17], 6.59%; under setting [18], 1.41%. Further, the viability, T/C under setting [19] was 8.31%; the viability, T/C under setting [20] was 8.47%; the viability, T/C under setting [21] is 7.44%; the viability, T/C under setting [22] is 6.08%; the viability, T/C under setting [23] was 6.49%; the viability, T/C under setting [24] is 1.91%. Further, the viability, T/C under setting [25] was 9.69%; the viability, T/C under setting [26] is 8.3%; the viability, T/C under setting [27] is 7.97%; the viability, T/C under setting [28] was 6.87%; the viability, T/C under setting [29] was 6%; the viability, T/C under setting [30] was 2.2%. The viability, T/C runs as follows: under setting [31], 8.16%; under setting [32], 6.87%; under setting [33], 6.83%; under setting [34], 5.84%; under setting [35], 4.35%; under setting [36], 1.03%. Moreover, the viability, T/C reads like this: under setting [37], 4.03%; under setting [38], 3.59%; under setting [39], 3.45%; under setting [40], 4.91%; under setting [41], 3.08%; under setting [42], 0.82%.

The record behind these values is PubChem BioAssay AID1963960 (Molecular Pharmacology Branch, DTP, NCI, 2024).
